# From ChEMBL document CHEMBL2375323, “Cu(OTf)2 catalyzed three component reaction: efficient synthesis of spiro[indoline-3,4'-pyrano[3,2-b]pyran derivatives and their anticancer potency towards A549 human lung cancer cell lines” (Bioorg Med Chem Lett, 2013)
# System: A549
# Assay: Cytotoxicity against human A549 cells assessed as growth inhibition by MTT assay
# Assay type: functional, cell-based
smiles,measurement,value
COC(=O)C1=C(N)Oc2c(oc(CO)cc2=O)C12C(=O)Nc1ccc(C)cc12 (centres undefined),IC50,62.8 µM
CCOC(=O)C1=C(N)Oc2c(oc(CO)cc2=O)C12C(=O)N(C)c1ccccc12 (centres undefined),IC50,55.8 µM
C=CCN1C(=O)C2(C(C#N)=C(N)Oc3c2oc(CO)cc3=O)c2ccccc21 (centres undefined),IC50,59.4 µM
N#CC1=C(N)Oc2c(oc(CO)cc2=O)C12C(=O)N(Cc1ccccc1)c1ccccc12 (centres undefined),IC50,> 200 µM
CCOC(=O)C1=C(N)Oc2c(oc(CO)cc2=O)C12C(=O)Nc1ccc(C)cc12 (centres undefined),IC50,52.9 µM
C=CCN1C(=O)C2(C(C(=O)OCC)=C(N)Oc3c2oc(CO)cc3=O)c2ccccc21 (centres undefined),IC50,54.6 µM
CN1C(=O)C2(C(C#N)=C(N)Oc3c2oc(CO)cc3=O)c2ccccc21 (centres undefined),IC50,51.1 µM
CCOC(=O)C1=C(N)Oc2c(oc(CO)cc2=O)C12C(=O)Nc1ccc(F)cc12 (centres undefined),IC50,> 200 µM
N#CC1=C(N)Oc2c(oc(CO)cc2=O)C12C(=O)Nc1ccc(Cl)cc12 (centres undefined),IC50,51.4 µM
C#CCN1C(=O)C2(C(C#N)=C(N)Oc3c2oc(CO)cc3=O)c2ccccc21 (centres undefined),IC50,> 200 µM
COC(=O)C1=C(N)Oc2c(oc(CO)cc2=O)C12C(=O)N(Cc1ccccc1)c1ccccc12 (centres undefined),IC50,55.1 µM
CCOC(=O)C1=C(N)Oc2c(oc(CO)cc2=O)C12C(=O)Nc1ccc(Br)cc12 (centres undefined),IC50,52.8 µM
CCOC(=O)C1=C(N)Oc2c(oc(CO)cc2=O)C12C(=O)Nc1ccc(Cl)cc12 (centres undefined),IC50,53.1 µM
CCOC(=O)C1=C(N)Oc2c(oc(CO)cc2=O)C12C(=O)Nc1ccccc12 (centres undefined),IC50,> 200 µM
N#CC1=C(N)Oc2c(oc(CO)cc2=O)C12C(=O)Nc1ccccc12 (centres undefined),IC50,52.8 µM
N#CC1=C(N)Oc2c(oc(CO)cc2=O)C12C(=O)Nc1ccc(F)cc12 (centres undefined),IC50,> 200 µM
COC(=O)C1=C(N)Oc2c(oc(CO)cc2=O)C12C(=O)Nc1ccc([N+](=O)[O-])cc12 (centres undefined),IC50,55.9 µM
COC(=O)C1=C(N)Oc2c(oc(CO)cc2=O)C12C(=O)Nc1ccccc12 (centres undefined),IC50,56.2 µM
N#CC1=C(N)Oc2c(oc(CO)cc2=O)C12C(=O)Nc1ccc(Br)cc12 (centres undefined),IC50,> 200 µM
